Assay results from patent US9394295B2, “Antibacterial homopiperidinyl substituted 3,4-dihydro-1H-[1,8]naphthyridinones” (Janssen Sciences Ireland UC, priority 2011, dated 2016).
In brackets after ≈: the same amount, converted by molar mass. Read-outs that look alike come from different tables or passages of the source.

Experiments:
S. aureus = assay: Antibacterial susceptibility testing: IC90 determination with 10% human serum (STA + 10% HS); type: cell-based; conditions: Staphylococcus aureus; S. aureus with human serum at final concentration of 10%; read-out: STA + 10% HS (361.169) IC90
Procedure: (§1) The following bacteria were used: Staphylococcus aureus ATCC 29213, methicillin-resistant Staphylococcus aureus (MRSA) ATCC 700788 and Escherichia coli ATCC 35218. The bacteria used in this study were grown overnight in flasks containing 100 ml Mueller-Hinton broth (Difco cat. nr. 0757-17) in sterile de-ionized water, with shaking, at 37° C. Stocks were store at −70° C. until use.
(§2) Bacteria were incubated on a tryptic soy agar plate containing 5% sheep blood (Becton Dickinson cat. nr. 254053) for 18-24 hours at 35° C. in aerobic conditions (first passage). For the second passage, fresh Mueller-Hinton broth is inoculated with 5-10 colonies and grown overnight at 35° C. until turbidity (reaching log-phase) in aerobic conditions is reached. The bacterial suspension is then adjusted to 0.5 McFarland density and further diluted 1:100 in Mueller Hinton broth medium. This is used as inoculum.
(§3) MIC assays were performed by the broth microdilution method in a 96-well format (flat-bottom microtitre plates) with a final volume of 0.1 ml Mueller Hinton broth containing two-fold serial dilutions of compounds and inoculated with 5×10^5 CFU/ml of bacteria (standard inoculum size according to CLSI guidelines). Inhibitors are typically varied over the range of 63 to 0.49 μM. The final DMSO concentration in the assay was 1.25% (maximum tolerable DMSO concentration=6%). In the assays where the effect of human serum on the activity of the compounds against S. aureus was tested, human serum was added at a final concentration of 10%. The plates were incubated at 35° C. for 16-20 hours. At the end of incubation the bacterial growth was quantified fluorometrically. For this, resazurin was added to all wells and the plates were re-incubated. The incubation time is dependent on the type of bacteria. A change in color from blue to pink indicated the growth of bacteria. The fluorescence was read in computer-controlled fluorometer (Fluoroskan Ascent FL, Labsystems) at an excitation wavelength 540 nm and an emission wavelength of 590 nm. The % growth inhibition achieved by the compounds was calculated according to standard methods. The IC90 (expressed in μg/ml) was defined as the 90% inhibitory concentration for bacterial growth. A panel of reference compounds were simultaneously tested for QC approval.
The results are depicted in the table D2 below (STA+10% HS).

E. coli ATCC 25922 = assay: MIC broth microdilution (CLSI), E. coli ATCC 25922; type: cell-based; conditions: Escherichia coli, ATCC25922
Procedure: (§4) Minimum Inhibitory Concentrations (MICs) were determined in accordance with the Clinical and Laboratory Standards Institute (CLSI) methodology against aerobic bacteria (CLSI M07-A8) (see Clinical and Laboratory Standards Institute. 2009. Methods for dilution antimicrobial susceptibility tests for bacteria that grow aerobically. CLSI document M07-A8, Vol. 29, No. 2.) by the broth microdilution method with cation-adjusted Mueller-Hinton broth (CA-MHB) medium for the majority of organisms, except for Haemophilus influenza, where Haemophilis test medium (HTM) broth was used. Descriptions of the individual organisms can be found in the table. Where possible, ATCC standard strains were tested.
(§5) The inoculum density for the susceptibility testing was standardized to give a final inoculum of approximately 5×10^5 CFU/mL.
(§6) Stock solutions of the compounds were prepared in DMSO at concentrations of 1 mg/mL. Linezolid was prepared in DMSO at a concentration of 2 mg/mL. Stock solutions of all compounds were diluted into CA-MHB to give a range of two-fold dilutions, depending upon the sensitivity of the organism being tested.

E. coli tolC mutant = assay: MIC broth microdilution (CLSI), E. coli tolC mutant; type: cell-based; conditions: Escherichia coli
Procedure: as §4, §5, §6

[1] = test system: Staphylococcus aureus ATCC 29213; assay: Antibacterial susceptibility testing: IC90 determination (STA); type: cell-based; conditions: ATCC29213, S. aureus ATCC 29213, 90% inhibitory concentration for bacterial growth, read-out: STA (361.159) IC90
Procedure: as §1, §2, §3

H. influenza ATCC 49247 = assay: MIC broth microdilution (CLSI), H. influenza ATCC 49247; type: cell-based; conditions: Haemophilus influenzae, ATCC49247, HTM broth
Procedure: as §4, §5, §6

M. catarrhalis ATCC 8176 = assay: MIC broth microdilution (CLSI), M. catarrhalis ATCC 8176; type: cell-based; conditions: Moraxella catarrhalis, ATCC8176
Procedure: as §4, §5, §6

[2] = In vivo pharmacokinetic and oral bioavailability; conditions: male Swiss mice; for half-life: read-out: Half life (t1/2) (converted)
Procedure: The in vivo pharmacokinetics and oral bioavailability of the compound of the examples was/is investigated in male Swiss mice (fed) following single intravenous (i.v.) bolus and oral (p.o.) administration. For the i.v. and p.o. solution formulations, the compound was/is dissolved in a 20% HP-β-CD solution. The pH of the formulations was/is around pH 4. All i.v. formulations were isotonic.

[3] = mouse, plasma, iv, i.v. 2.5 mg/kg
[4] = mouse, plasma, po, p.o. 10 mg/kg

Row | SMILES | IC90 (S. aureus) [µg/mL] | MIC90 (E. coli ATCC 25922) [µg/mL] | MIC90 (E. coli tolC mutant) [µg/mL] | IC90 [1] [µg/mL] | MIC90 (H. influenza ATCC 49247) [µg/mL] | MIC90 (M. catarrhalis ATCC 8176) [µg/mL] | Vdz ([2]; i.v. 2.5 mg/kg) [L/kg] | AUC(0-inf) [2, 3] [ng·h/mL] | C0 ([2]; mouse, plasma, iv, i.v. 2.5 mg/kg, 20% HP-β-CD solution) [ng/mL] | half-life [2, 3] [h] | clearance ([2]; mouse, plasma, iv, i.v. 2.5 mg/kg, read-out: Plasma clearance Cl (converted)) [mL/min/kg] | bioavailability ([2]; mouse, plasma, po, p.o. 10 mg/kg vs i.v. 2.5 mg/kg) [%] | AUC(0-inf) [2, 4] [ng·h/mL] | Tmax [2, 4] [h] | Cmax ([2]; mouse, plasma, po, p.o. 10 mg/kg, 20% HP-β-CD solution) [ng/mL] | half-life [2, 4] [h]
1 | O=C1CCc2cc(/C=C/C(=O)N3CCC=C(c4ccccc4)CC3)cnc2N1 [Co. No. 2] | 0.33 | > 32 | 0.25 (≈ 0.669 µM) | 0.14 (≈ 0.375 µM) |  |  |  |  |  |  |  |  |  |  |  | 
2 | COc1ccc(F)cc1C1=CCCN(C(=O)/C=C/c2cnc3c(c2)CCC(=O)N3)CC1 [Co. No. 27] | 0.33 | > 8 | > 8 | 0.1 (≈ 0.237 µM) | > 8 | 1 (≈ 2.37 µM) | 1.2 | 3560 | 3350 | 1.1 | 12.5 | 89 | 12600 | 0.5 | 4640 | 2
